Measured values published in ChEMBL document CHEMBL1123444, “Analgesic actions of 3-substituted 6-tert-butyl-1,2,3,4,5,6-hexahydro-2,6-methano-3-benzazocines” (1986).
Calls of active or inactive are those of the source. No cut-off for these calls is given here.

How the values were obtained:
Mus musculus [1] = species: Mus musculus; test: Compound was evaluated for analgesic activity using mouse hotplate test; assay type: functional
Mus musculus [2] = test: Compound was evaluated for analgesic activity using mouse hotplate test, at the dose 20 mg/kg; Inactive; assay type: functional, organism-based; design: dose 20 mg/kg
Mus musculus [3] = test: Compound was evaluated for analgesic activity using mouse hotplate test, at the dose 50 mg/kg; Inactive; assay type: functional, organism-based; design: dose 50 mg/kg
Mus musculus [4] = test: Compound was evaluated for analgesic activity using mouse hotplate test at 7.1-13.8 mg/kg dose; assay type: functional

SMILES: CN1CCC2(C(C)(C)C)CC1Cc1ccccc12 (stereo not given)
- ED50 (Mus musculus [1]): 14.1 mg/kg

SMILES: CC(C)(C)C12CCN(CC3CC3)C(Cc3ccccc31)C2 (stereo not given)
- ED50 (Mus musculus [2]): inactive

SMILES: CN1CC[C@]23c4c5ccc(O)c4O[C@H]2[C@@H](O)C=C[C@H]3[C@H]1C5.CN1CC[C@]23c4c5ccc(O)c4O[C@H]2[C@@H](O)C=C[C@H]3[C@H]1C5.O=S(=O)(O)O
- ED50 (Mus musculus [1]): 1.2 mg/kg

SMILES: C=CCN1CCC2(C(C)(C)C)CC1Cc1ccccc12 (stereo not given)
- ED50 (Mus musculus [3]): inactive

SMILES: CC(C)(C)C12CCN(CCc3ccccc3)C(Cc3ccccc31)C2 (stereo not given)
- ED50 (Mus musculus [4]): 9.9 mg/kg
